Where “and” joins values, the source holds several entries; their conditions need not be identical. Identical values can stand only once. Entries after “also recorded” stand apart in the source; their conditions may differ. Like-named read-outs stand apart in the source and are kept apart here. No end group written: not given here.
Key:
[1] = test system: patients with progressing open angle glaucoma; test: Multi-dose study in progressing open-angle glaucoma, Humphrey Visual Field analysis; format: in vivo, human
Experimental: Visual function metrics were measured at over two screening time points, a baseline, and at about days 90, 177, 180, and 270. Measures for visual function included visual field analysis pre- and post-treatment with ONL1204.
Patients were part of the study for approximately 39 weeks (270 days). Randomization was be stratified by HVF mean deviation (−5.00 dB to >−10.00 dB and ≤−10.00 dB to −15.00 dB).
FIGS. 3-5 show study and fellow eye data for the changes in mean visual field analysis of clusters in sham, 50 ug, and 100 ug patients. The data represents mean data for each cluster (10 clusters per patient). […] Each cluster is denoted by a rate of change in sensitivity, in dB/yr. The Baseline sensitivity of each cluster is denoted in dB. Positive values indicate an improvement in visual field and/or improving rate of visual field change. FIGS. 6-8 show study and fellow eye data for the changes in mean visual field analysis (unclustered, point specific, pointwise) in sham, 50 ug, and 100 ug patients.

[2] = test system: patients having macular degeneration characterized by geographic atrophy (GA); test: Study in geographic atrophy (GA) patients, BCVA; format: in vivo, human; conditions: single IVT injection, doses 25 ug and 50 ug as printed
Experimental: Baseline best corrected visual acuity (BCVA) was measured prior to treatment with ONL1204.

[3] = test system: patients with retinal detachment; test: Retinal detachment study, best corrected visual acuity; format: in vivo, human; design: key to BCVA Snellen study eye baseline / BCVA Snellen study eye week 9: HM = hand motion; CF = counting fingers; conditions: for BCVA logMAR study eye week 6 / BCVA Snellen study eye week 6: week 6, individual patients; for BCVA logMAR study eye week 9 / BCVA Snellen study eye week 9: week 9, individual patients; for BCVA logMAR study eye week 24 / BCVA Snellen study eye week 24: week 24, individual patients
Experimental: (§1) During the study, ocular fluid samples were also collected at the time of study drug injection and at the time of vitrectomy. These samples were used for pharmacokinetic and pharmacodynamic analyses.
(§2) Patients were enrolled in ascending dose groups. […] Safety visits were conducted one day post-injection and as deemed necessary by the examining Investigator (at least 1 visit every 3 days) until Visit 3. At Visit 3 (3+ days post-injection, in accordance with standard of care) patients underwent surgical repair of their retinal detachment with vitrectomy (with or without scleral buckling) and gas or oil tamponade. At the time of surgery, an undiluted vitreous sample was collected for pharmacokinetic and pharmacodynamics analyses, and an aqueous sample was collected for pharmacodynamic analysis. Additional safety visits were targeted for and generally conducted one day post-surgery, 7 days (±3 days) post-surgery, 14 (±4 days) days post-surgery, and Weeks 6, 9, 12 (±7 days each), and Week 24 (±14 days; study exit).
Therefore, a volume of 0.05 or 0.1 mL was injected into the study eye. Patient participation was approximately 24 weeks (6 months): a single injection treatment and 24 weeks of follow-up.

[4] = test system: patients with retinal detachment; test: Retinal detachment study, adverse events; format: in vivo, human
Experimental: The primary objective was to determine the Maximum Tolerated Dose (MTD) of a peptide an amino acid sequence […] and the structure of Formula III (ONL1204) and select doses for further clinical studies. During the study, ocular fluid samples were also collected at the time of study drug injection and at the time of vitrectomy. These samples were used for pharmacokinetic and pharmacodynamic analyses.
as §2
Planned determinations of dose limiting toxicity included consideration of the following events: • 1.

[5] = test system: MCP1; test: Retinal detachment study, cytokine change from administration to surgery: MCP1; format: in vivo, human; conditions: for Percent Change (%) from time of administering ONL1204 to surgery MCP1: individual patients
Experimental: as §1, §2

[6] = test system: ICAM1; test: Retinal detachment study, cytokine change from administration to surgery: ICAM1; format: in vivo, human; conditions: for Percent Change (%) from time of administering ONL1204 to surgery ICAM1: individual patients
Experimental: as §1, §2

[7] = test system: IL1RA; test: Retinal detachment study, cytokine change from administration to surgery: IL1RA; format: in vivo, human; conditions: for Percent Change (%) from time of administering ONL1204 to surgery IL1RA: individual patients
Experimental: as §1, §2

[8] = test system: IL18; test: Retinal detachment study, cytokine change from administration to surgery: IL18; format: in vivo, human; conditions: for Percent Change (%) from time of administering ONL1204 to surgery IL18: individual patients
Experimental: as §1, §2

[9] = test system: male rabbit NaIO3 model; test: Sodium iodate (NaIO3) challenge study, lesion size (area of RPE depigmentation); format: in vivo; conditions: for lesion area versus negative control: NaIO3 challenge Day 4; for mean lesion size smaller compared to negative controls: NaIO3 challenge Day 59
Experimental: Animals were anesthetized with isoflurane vapors to effect. […] No reflux was noted on the dosing record.
Animals were anesthetized with isoflurane vapors to effect.
The resulting area was then measured.

[10] = rabbit, in vivo
Experimental: Body weights were measured and recorded prior to first dose, approximately weekly (for surviving animals through Week 12), and prior to euthanasia. […] Ophthalmic examinations were performed using the Hackett-McDonald Scoring System on Days 0, 7, 14, 28, 90, 97, 151, and 168. Pharmacokinetic analyses were performed on the vitreous humor concentration data.
Seven animals received a repeat IVT dose at 2 mg/mL (0.1 mg/eye) on Day 90.
Vitreous humor, retina, and choroid were collected on days 1, 7, 14, 28, 42, 61, 90, 97, 151, and 168. Eyes were enucleated, snap frozen using liquid nitrogen, and kept on dry ice or frozen at −80° C. until dissected for collection of aqueous humor, vitreous humor, retina, choroid, iris-ciliary body (ICB), and lens.
To homogenize ocular tissue samples, weighed amounts of control bovine vitreous humor, retina, and choroid were homogenized in USA scientific impact resistant microtubes containing 2.8 mm ceramic beads. Unknown rabbit vitreous humor, retina, and choroid samples were homogenized in USA scientific impact resistant microtubes containing 2.8 mm ceramic beads. […]

[11] = minipig, in vivo
Experimental: Seven animals received a repeat IVT dose at 2 mg/mL (0.1 mg/eye) on Day 90. […] Vitreous humor, retina, and choroid were collected on days 1, 7, 14, 28, and 88.

HHIYLGAVNYIY-NH2 [ONL1204]
visual field outcomes as measured by Humphrey Visual Field (HVF) analysis ([1]; 50 ug and 100 ug, two IVT injections (day 0, day 90), compared to sham): improvement in visual field outcomes; also recorded: improvement in visual field was generally observed
visual field benefit in patients having lower baseline sensitivities ([1]; baseline sensitivity equal to or less than −5): benefits of ONL1204 treatment were also observed
visual outcomes (visual acuity, BCVA) versus baseline [2]: improvement in visual outcomes
BCVA logMAR study eye week 6 ([3]; 25 ug (dose per Table 1)): 0.34 logMAR and 0.18 logMAR and 0.82 logMAR (2×)
BCVA logMAR study eye week 9 ([3]; 25 ug (dose per Table 1)): 0.14 logMAR and 0.12 logMAR and 0.64 logMAR and 0.78 logMAR
BCVA logMAR study eye week 24 ([3]; 25 ug (dose per Table 1)): 0.5 logMAR and 0.2 logMAR and 0.68 logMAR and 0.7 logMAR
BCVA Snellen study eye baseline ([3]; 25 ug single IVT, baseline, individual patients): 20/160 and 20/100 and 20/200 and HM
BCVA Snellen study eye week 6 ([3]; 25 ug single IVT): 20/40 and 20/32 and 20/125 (2×)
BCVA Snellen study eye week 9 ([3]; 25 ug single IVT): 20/25 (2×) and 20/100 and 20/125
BCVA Snellen study eye week 24 ([3]; 25 ug single IVT): 20/60 and 20/32 and 20/100 (2×)
BCVA logMAR study eye baseline ([3]; 50 ug (dose per Table 1), baseline, individual patients): 3 logMAR and 2 logMAR (3×)
BCVA logMAR study eye week 6 ([3]; 50 ug (dose per Table 1)): 0.46 logMAR and 0.38 logMAR (2×) and 0.52 logMAR
BCVA logMAR study eye week 9 ([3]; 50 ug (dose per Table 1)): 0.6 logMAR and 0.56 logMAR and 0.34 logMAR
BCVA logMAR study eye week 24 ([3]; 50 ug (dose per Table 1)): 0.76 logMAR and 0.2 logMAR and 0.64 logMAR and 0.34 logMAR
BCVA Snellen study eye baseline ([3]; 50 ug single IVT, baseline, individual patients): HM and CF (3×)
BCVA Snellen study eye week 6 ([3]; 50 ug single IVT): 20/50 (2×) and 20/80
BCVA Snellen study eye week 9 ([3]; 50 ug single IVT): 20/80 (2×) and 20/50
BCVA Snellen study eye week 24 ([3]; 50 ug single IVT): 20/125 and 20/32 and 20/80 and 20/50
BCVA logMAR study eye week 6 ([3]; 100 ug (dose per Table 1)): 0.8 logMAR and 0.7 logMAR and 1 logMAR and 1.6 logMAR
BCVA logMAR study eye week 24 ([3]; 100 ug (dose per Table 1)): 0.5 logMAR and 0.7 logMAR and 1.3 logMAR and 0.6 logMAR
BCVA Snellen study eye baseline ([3]; 100 ug single IVT, baseline, individual patients): HM (2×) and 20/100 and 20/200
BCVA Snellen study eye week 6 ([3]; 100 ug single IVT): 20/125 and 20/100 and 20/200 and 20/800
BCVA Snellen study eye week 9 ([3]; 100 ug single IVT): 20/200 and 20/80 and HM and 20/400
BCVA Snellen study eye week 24 ([3]; 100 ug single IVT): 20/63 and 20/100 and 20/400 and 20/80
BCVA logMAR study eye week 6 ([3]; 200 ug (dose per Table 1)): 0.4 logMAR and 0.7 logMAR
BCVA logMAR study eye week 9 ([3]; 200 ug (dose per Table 1)): 0.36 logMAR and 0.6 logMAR
BCVA logMAR study eye week 24 ([3]; 200 ug (dose per Table 1)): 0.2 logMAR
BCVA Snellen study eye baseline ([3]; 200 ug single IVT, baseline, individual patients): 20/160 and HM
BCVA Snellen study eye week 6 ([3]; 200 ug single IVT): 20/50 and 20/100
BCVA Snellen study eye week 9 ([3]; 200 ug single IVT): 20/40 and 20/80
BCVA Snellen study eye week 24 ([3]; 200 ug single IVT): 20/32
summary statistics for all patients, mean (BCVA logMAR), Week 9 ([3]; all doses, n 13, week 9): 0.78
summary statistics for all patients, mean (BCVA logMAR), Week 24 ([3]; all doses, n 13, week 24): 0.56
summary statistics for all patients, mean (BCVA logMAR), Baseline ([3]; all doses, n 14, baseline): 1.86
summary statistics for all patients, mean (BCVA logMAR), Week 6 ([3]; all doses, n 14, week 6): 0.65
visual outcomes (visual acuity) ([3]; all patients receiving 25 ug and 50 ug): improvement in visual outcomes
severity of adverse events ([4]; 25 ug and 50 ug, study procedure or surgery related): Most were mild
patients experiencing adverse events ([4]; 4 patients 25 ug and 4 patients 50 ug, single IVT): 7 out of 8
total adverse events ([4]; 8 patients, 25 ug and 50 ug): 20
Percent Change (%) from time of administering ONL1204 to surgery MCP1 ([5]; 25 ug (dose per Table 1)): −41.4% and −6.02% and −35.9%
Percent Change (%) from time of administering ONL1204 to surgery MCP1 ([5]; 50 ug (dose per Table 1)): −3.12% and −48.4% and 11.6%
Percent Change (%) from time of administering ONL1204 to surgery MCP1 ([5]; 100 ug (dose per Table 1)): −9.5% and 78.5% and 500%
Percent Change (%) from time of administering ONL1204 to surgery MCP1 ([5]; 200 ug (dose per Table 1)): −2.4%
mean change in MCP1 from administration to surgery ([5]; all patients of Table 7): mean decrease
Percent Change (%) from time of administering ONL1204 to surgery ICAM1 ([6]; 25 ug (dose per Table 1)): −82.4% and −42.7% and −86.2%
Percent Change (%) from time of administering ONL1204 to surgery ICAM1 ([6]; 50 ug (dose per Table 1)): 64.0% and −100% and 0%
Percent Change (%) from time of administering ONL1204 to surgery ICAM1 ([6]; 100 ug (dose per Table 1)): −43.9% and 24.9% and 22.7%
Percent Change (%) from time of administering ONL1204 to surgery ICAM1 ([6]; 200 ug (dose per Table 1)): 0%
mean change in ICAM from administration to surgery ([6]; all patients of Table 7): mean decrease
Percent Change (%) from time of administering ONL1204 to surgery IL1RA ([7]; 25 ug (dose per Table 1)): −51.0% and −57.4% and −99.3%
Percent Change (%) from time of administering ONL1204 to surgery IL1RA ([7]; 50 ug (dose per Table 1)): −60.0% and −94.4% and −88.3%
Percent Change (%) from time of administering ONL1204 to surgery IL1RA ([7]; 100 ug (dose per Table 1)): 8.5% and −46.1% and −65.2%
Percent Change (%) from time of administering ONL1204 to surgery IL1RA ([7]; 200 ug (dose per Table 1)): −26.3%
mean change in IL1RA from administration to surgery ([7]; all patients of Table 7): mean decrease
Percent Change (%) from time of administering ONL1204 to surgery IL18 ([8]; 25 ug (dose per Table 1)): −60.5% and −22.5% and −50.8%
Percent Change (%) from time of administering ONL1204 to surgery IL18 ([8]; 50 ug (dose per Table 1)): 0% (2×) and −100%
Percent Change (%) from time of administering ONL1204 to surgery IL18 ([8]; 100 ug (dose per Table 1)): −33.7% and 0% and 66.0%
Percent Change (%) from time of administering ONL1204 to surgery IL18 ([8]; 200 ug (dose per Table 1)): 0%
mean change in IL18 from administration to surgery ([8]; all patients of Table 7): mean decrease
mean lesion size across challenge time points ([9]; 25 ug and 100 ug per eye IVT Day 0): substantive reduction in mean lesion size
lesion area versus negative control ([9]; 25 ug per eye IVT Day 0): significantly lower than negative control
mean lesion size smaller compared to negative controls ([9]; 25 ug per eye IVT Day 0): 40%
lesion area versus negative control ([9]; 100 ug per eye IVT Day 0): significantly lower than negative control
lesion size versus negative controls and 25 ug ([9]; 100 ug per eye IVT Day 0, NaIO3 challenge Day 14): significantly smaller lesion size
lesion size versus negative control and 25 ug ([9]; 100 ug per eye IVT Day 0, NaIO3 challenge Day 28): significantly smaller lesion size
mean lesion size smaller compared to negative controls ([9]; 100 ug per eye IVT Day 0): 50%
detection in retinal tissue and vitreous humor [10]: detected in retinal tissue as well as the vitreous humor after 168 days
detection in the vitreous humor [10]: detected in the vitreous humor across all time points analyzed
detection in the vitreous humor [11]: detected in the vitreous humor across all time points analyzed
